From ChEMBL document CHEMBL1145008, “Relationship between stereochemistry and the beta3-adrenoceptor agonistic activity of 4'-hydroxynorephedrine derivative as an agent for treatment of frequent urination and urinary incontinence” (J Med Chem, 2003)

Assays:
[1] = molecular target: Beta-1 adrenergic receptor (Rattus norvegicus) (UniProt P18090)
Description: Mean concentration required to increase basal rate of rat atria by 20 beats per minute

[2] = molecular target: Beta-1 adrenergic receptor (Rattus norvegicus) (UniProt P18090); remark: listed apart in the source
Description: (§1) Agonistic activity for Beta-1 adrenergic receptor was estimated from it's chronotropic effect on rat atria

[3] = molecular target: Beta-2 adrenergic receptor (Rattus norvegicus) (UniProt P10608); experiment: Agonistic activity for Beta-2 adrenergic receptor was assessed by it's inhibitory effect on spontaneous contractions in isolated rat uterus
[4] = molecular target: Beta-1 adrenergic receptor (Rattus norvegicus) (UniProt P18090); remark: listed apart in the source
Description: as §1

Beta-1 adrenergic receptor (Rattus norvegicus), sequence (P18090 whole entry, looked up): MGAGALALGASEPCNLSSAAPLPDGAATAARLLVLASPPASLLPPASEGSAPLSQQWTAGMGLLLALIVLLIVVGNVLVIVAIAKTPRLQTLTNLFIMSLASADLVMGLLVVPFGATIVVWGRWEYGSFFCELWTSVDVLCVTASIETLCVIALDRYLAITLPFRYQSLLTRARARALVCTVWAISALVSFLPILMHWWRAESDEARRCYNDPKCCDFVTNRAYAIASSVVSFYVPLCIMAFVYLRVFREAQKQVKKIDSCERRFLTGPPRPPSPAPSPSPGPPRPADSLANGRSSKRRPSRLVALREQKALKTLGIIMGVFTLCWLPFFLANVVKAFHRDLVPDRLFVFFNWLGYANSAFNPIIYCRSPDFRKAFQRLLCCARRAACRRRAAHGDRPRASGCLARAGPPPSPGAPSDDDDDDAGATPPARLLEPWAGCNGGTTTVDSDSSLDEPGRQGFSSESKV
Beta-2 adrenergic receptor (Rattus norvegicus), sequence (P10608 whole entry, looked up): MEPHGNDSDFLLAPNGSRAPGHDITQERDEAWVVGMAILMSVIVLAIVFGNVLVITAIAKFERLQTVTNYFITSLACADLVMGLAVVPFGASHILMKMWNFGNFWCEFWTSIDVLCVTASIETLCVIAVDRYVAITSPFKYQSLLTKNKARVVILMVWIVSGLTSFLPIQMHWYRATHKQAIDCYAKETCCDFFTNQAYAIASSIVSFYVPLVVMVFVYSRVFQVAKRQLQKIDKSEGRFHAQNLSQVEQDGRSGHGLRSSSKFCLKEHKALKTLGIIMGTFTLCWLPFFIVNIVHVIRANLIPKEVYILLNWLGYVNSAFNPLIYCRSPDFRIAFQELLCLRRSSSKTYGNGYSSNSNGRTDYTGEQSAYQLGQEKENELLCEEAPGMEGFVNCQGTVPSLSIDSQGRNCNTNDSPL

| SMILES | EC20 [1] | pEC20 [2] | pEC20 [4] | IC50 [3] |
| --- | --- | --- | --- | --- |
| C[C@@H](NCCc1ccc(OCC(=O)O)c(Cl)c1)[C@H](O)c1ccc(O)cc1 | 21 µM | 4.68 |  |  |
| C[C@H](Cc1ccc(OCC(=O)O)cc1)NC[C@H](O)c1cccc(Cl)c1 (relative stereo) |  |  |  | 0.00912 µM |
| C[C@@H](NCCc1ccc(OCC(=O)O)c(Cl)c1)[C@@H](O)c1ccc(O)cc1 | 14 µM |  | 4.86 |  |
| CCOC(=O)COc1ccc(CCNC(C)C(O)c2ccc(O)cc2)cc1Cl (stereo not given) | 1.6 µM | 5.8 |  |  |

Continued, in another order:

| EC20 [1] | pEC20 [2] | pEC20 [4] | SMILES | IC50 [3] |
| --- | --- | --- | --- | --- |
| 55 µM | 4.26 |  | C[C@H](NCCc1ccc(OCC(=O)O)c(Cl)c1)[C@@H](O)c1ccc(O)cc1 |  |
| > 100 µM |  |  | C[C@H](NCCc1ccc(OCC(=O)O)c(Cl)c1)[C@H](O)c1ccc(O)cc1 |  |
